Results taken from ChEMBL document CHEMBL1201862, “PubChem BioAssay data set” (2004).
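Interpolation was linear, between the two tested concentrations surrounding the appropriate level; five concentrations were tested over 48 hours in 96-well plates. Abbreviation: GI50, concentration required for 50% inhibition of growth.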 Activity calls are given as the source filed them. Rule as the data show it: active = GI50 up to about 1.1 µM and inactive = higher.

How the values were obtained:
Assay in all cases: NCI tumour cell line growth inhibition, 48 h
[1] = test system: 786-0
[2] = test system: HOP-62
[3] = test system: HT-29
[4] = test system: IGROV-1
[5] = test system: K562
[6] = test system: M14
[7] = test system: MOLT-4
[8] = test system: NCI-H23
[9] = test system: OVCAR-5
[10] = test system: OVCAR-8
[11] = test system: RPMI-8226
[12] = test system: SF-295
[13] = test system: SK-MEL-28
[14] = test system: SN12C
[15] = test system: SNB-75
[16] = test system: U-251
[17] = test system: UO-31
[18] = test system: HOP-92
[19] = test system: Malme-3M
[20] = test system: SF-539

Measured: GI50

CNC(=O)c1nnn(Cc2ccccc2)c1S
inactive: [1] > 100 µM | [2] > 100 µM | [3] > 100 µM | [4] > 100 µM | [5] > 100 µM | [6] > 100 µM | [7] > 100 µM | [8] > 100 µM | [9] > 100 µM | [10] > 100 µM | [11] > 100 µM | [12] > 100 µM | [13] > 100 µM | [14] > 100 µM | [15] > 100 µM | [16] > 100 µM | [17] > 100 µM

C[N+](C)(C)CC(=O)N/N=C(/Cc1nc2c3c(ccc2nc1O)C(=O)c1ccccc1C3=O)C(=O)Nc1ccc(Cl)c(Cl)c1
inactive: [1] 77.6 µM | [2] 35.9 µM | [18] 29.6 µM | [3] > 100 µM | [4] 12.7 µM | [5] 53.5 µM | [6] 81.1 µM | [7] 19.9 µM | [19] > 100 µM | [8] 44.6 µM | [9] > 100 µM | [10] 50.5 µM | [11] 17.4 µM | [12] 79.4 µM | [20] 93.1 µM | [13] > 100 µM | [14] 86.9 µM | [17] 6.84 µM

COc1ccc(C23OCC(Cc4cc(OC)c(OC)cc42)C3CO)cc1OC (stereo not given)
inactive: [1] > 100 µM | [2] > 100 µM | [5] > 100 µM | [6] > 100 µM | [7] > 100 µM | [19] > 100 µM | [8] > 100 µM | [9] > 100 µM | [11] > 100 µM | [12] > 100 µM | [20] > 100 µM | [13] > 100 µM | [15] > 100 µM | [16] > 100 µM | [17] > 100 µM

COc1cccc(C=C2N=C(C)N(n3c(-c4ccccc4)nc4ccccc4c3=O)C2=O)c1
inactive: [1] > 100 µM | [2] > 100 µM | [3] > 100 µM | [4] > 100 µM | [5] > 100 µM | [6] > 100 µM | [7] 94.4 µM | [8] > 100 µM | [10] > 100 µM | [11] 59 µM | [12] 95.5 µM | [20] > 100 µM | [13] > 100 µM | [14] > 100 µM | [15] 56.1 µM | [17] > 100 µM

Cc1cccc(NC(=O)Cc2nc3ccccc3s2)c1C
inactive: [1] > 100 µM | [2] > 100 µM | [3] > 100 µM | [4] > 100 µM | [5] > 100 µM | [6] > 100 µM | [7] > 100 µM | [19] > 100 µM | [8] > 100 µM | [9] > 100 µM | [10] > 100 µM | [11] > 100 µM | [12] > 100 µM | [20] > 100 µM | [13] > 100 µM | [14] > 100 µM | [15] > 100 µM | [17] > 100 µM

Cc1cc(Cl)ccc1NC(=O)CCCC(=O)C1CCCC1=O (stereo not given)
inactive: [1] > 100 µM | [3] > 100 µM | [4] > 100 µM | [5] > 100 µM | [6] > 100 µM | [7] > 100 µM | [19] > 100 µM | [8] > 100 µM | [9] > 100 µM | [10] > 100 µM | [11] > 100 µM | [12] > 100 µM | [20] > 100 µM | [14] > 100 µM | [16] > 100 µM | [17] > 100 µM

COC(=O)CCCN(C)c1nc(N)n[nH]1
inactive: [1] > 100 µM | [2] > 100 µM | [3] > 100 µM | [4] > 100 µM | [5] > 100 µM | [6] > 100 µM | [7] > 100 µM | [8] > 100 µM | [9] > 100 µM | [10] > 100 µM | [11] > 100 µM | [12] > 100 µM | [20] > 100 µM | [13] > 100 µM | [14] > 100 µM | [15] 66.2 µM | [16] > 100 µM | [17] > 100 µM

COc1cc2c(c(OC)c1)/C(=C/Sc1ccccc1)C(=O)N(C(C)(C)C)C2
inactive: [1] 28.5 µM | [2] 27.5 µM | [18] 1.41 µM | [3] 22.9 µM | [4] 22.3 µM | [5] 37.8 µM | [7] 21.3 µM | [8] 26.3 µM | [9] 52.6 µM | [10] 25.6 µM | [11] 26.1 µM | [12] 27.2 µM | [20] 44.7 µM | [13] 38.9 µM | [14] 24 µM | [16] 29.8 µM

CCOC(=O)Cc1cc(=O)oc2cc(O)ccc12
inactive: [1] > 100 µM | [3] > 100 µM | [4] > 100 µM | [5] > 100 µM | [6] > 100 µM | [7] > 100 µM | [19] > 100 µM | [8] > 100 µM | [9] 59.4 µM | [10] > 100 µM | [11] > 100 µM | [12] > 100 µM | [20] > 100 µM | [13] > 100 µM | [14] > 100 µM | [15] > 100 µM | [16] > 100 µM | [17] > 100 µM

O=S(=O)(c1ccccc1)C1(C2(S(=O)(=O)c3ccccc3)CCN=N2)CCN=N1 (stereo not given)
inactive: [1] > 100 µM | [3] > 100 µM | [4] > 100 µM | [5] > 100 µM | [6] > 100 µM | [7] > 100 µM | [19] > 100 µM | [8] > 100 µM | [9] > 100 µM | [10] > 100 µM | [11] > 100 µM | [12] > 100 µM | [20] > 100 µM | [13] > 100 µM | [14] > 100 µM | [15] > 100 µM | [16] > 100 µM | [17] > 100 µM

CCOC(=O)N1CCN(C=S)CC1
inactive: [1] > 100 µM | [2] > 100 µM | [3] > 100 µM | [4] > 100 µM | [5] > 100 µM | [6] > 100 µM | [7] > 100 µM | [19] > 100 µM | [8] > 100 µM | [9] > 100 µM | [10] > 100 µM | [20] > 100 µM | [13] > 100 µM | [14] > 100 µM | [15] > 100 µM | [16] > 100 µM | [17] > 100 µM

CCOC(=O)NNC(=O)NCc1ccccc1CNC(=O)NNC(=O)OCC
inactive: [1] > 100 µM | [3] > 100 µM | [4] > 100 µM | [5] > 100 µM | [6] > 100 µM | [7] > 100 µM | [19] > 100 µM | [8] > 100 µM | [9] > 100 µM | [10] > 100 µM | [11] > 100 µM | [20] > 100 µM | [13] > 100 µM | [14] > 100 µM | [15] > 100 µM | [16] > 100 µM | [17] > 100 µM

C#CCNC(=O)ON1C(=O)CCC1=O
inactive: [1] > 100 µM | [2] > 100 µM | [3] > 100 µM | [4] > 100 µM | [5] > 100 µM | [7] > 100 µM | [19] > 100 µM | [8] > 100 µM | [9] > 100 µM | [10] > 100 µM | [11] > 100 µM | [12] > 100 µM | [20] > 100 µM | [13] > 100 µM | [14] > 100 µM | [15] > 100 µM | [16] > 100 µM | [17] > 100 µM

Clc1ncnc2c1ncn2CCCCCCCCCCCCn1cnc2c(Cl)ncnc21
inactive: [1] 17.7 µM | [2] 18.6 µM | [18] 5.24 µM | [3] 9.82 µM | [4] 4.69 µM | [5] 1.15 µM | [6] 15.3 µM | [7] 6.78 µM | [8] 2.49 µM | [9] 27.7 µM | [10] 11.1 µM | [11] 2.13 µM | [12] 15.4 µM | [20] 14.4 µM | [13] 2.6 µM | [14] 18.6 µM | [16] 11.6 µM | [17] 13.1 µM

COC(=O)[C@@H](OC(C)=O)[C@@H](OC(C)=O)c1nnc2ccc(Cl)nn12
inactive: [1] > 100 µM | [2] > 100 µM | [3] > 100 µM | [4] 85.3 µM | [6] > 100 µM | [7] > 100 µM | [19] > 100 µM | [8] > 100 µM | [9] > 100 µM | [10] > 100 µM | [11] 62.2 µM | [12] > 100 µM | [20] > 100 µM | [13] 97.7 µM | [14] > 100 µM | [16] > 100 µM

C=CCN(C(=O)OC(C)(C)C)[C@H](C)C(=O)N[C@@H](C)C(=O)OC
inactive: [1] > 100 µM | [2] > 100 µM | [18] > 100 µM | [3] > 100 µM | [4] > 100 µM | [5] > 100 µM | [6] > 100 µM | [7] > 100 µM | [19] > 100 µM | [8] > 100 µM | [9] > 100 µM | [10] > 100 µM | [11] > 100 µM | [12] > 100 µM | [20] > 100 µM | [13] > 100 µM | [14] > 100 µM | [16] > 100 µM | [17] > 100 µM
